# From patent US20050009889A1 (priority 2002, published 2005)
# Where two headings read alike, the source gives them in different places. Marks after values point to notes of the source that are not given here.
# Tests used:
# Assay type in all cases: in vivo
# [1] = system: Puccinia recondita; assay: Test B: preventive control of wheat leaf rust on wheat seedlings; details: wheat seedlings sprayed to run-off, inoculated next day; concentration not given
# From the text: (§1) General protocol for preparing test suspensions: Test compounds are first dissolved in acetone in an amount equal to 3% of the final volume and then suspended at the desired concentration (in ppm) in acetone and purified water (50/50 mix) containing 250 ppm of the surfactant Trem® 014 (polyhydric alcohol esters). The resulting test suspensions are then used in the following tests. Spraying a 200 ppm test suspension to the point of run-off on the test plants is the equivalent of a rate of 500 g/ha.
# (§2) The test suspension was sprayed to the point of run-off on wheat seedlings. The following day the seedlings were inoculated with a spore suspension of Puccinia recondita (the causal agent of wheat leaf rust) and incubated in a saturated atmosphere at 20° C. for 24 h, and then moved to a growth chamber at 20° C. for 6 days, after which disease ratings were made.
# [2] = system: Phytophthora infestans
# [3] = system: Pyricularia oryzae; details: rice seedlings sprayed to run-off, inoculated next day; concentration not given
# [4] = system: grape downy mildew; assay: Curative utility, in addition to the Tests of Table A; details: especially for grape downy mildew
# [5] = system: Plasmopara viticola; assay: Test E: preventive control of grape downy mildew on grape seedlings
# From the text: as §1
# as §2, with “grape” for “wheat”, “Plasmopara viticola” for “Puccinia recondita”, “grape downy mildew)” for “wheat leaf rust)”, “h,” for “h, and then”, “days, and then incubated in a saturated atmosphere at 20° C. for 24 h,” for “days,”
# [6] = system: Phytophthora infestans; details: tomato seedlings sprayed to run-off, inoculated next day; concentration not given
# [7] = system: Erysiphe graminis f. sp. tritici; assay: Test A: preventive control of wheat powdery mildew on wheat seedlings; details: wheat seedlings sprayed to run-off, inoculated next day, rated after 7 days; concentration not given
# From the text: as §1
# The test suspension was sprayed to the point of run-off on wheat seedlings. The following day the seedlings were inoculated with a spore dust of Erysiphe graminis f. sp. tritici, (the causal agent of wheat powdery mildew) and incubated in a growth chamber at 20° C. for 7 days, after which disease ratings were made.
# [8] = system: Plasmopara viticola; assay: Test G: curative control of grape downy mildew on grape seedlings
# From the text: as §1
# Grape seedlings are inoculated with a spore suspension of Plasmopara viticola (the casual agent of grape downy mildew) and incubated in a saturated atmosphere at 20° C. for 24 h. The next day, test suspension is sprayed to the point of run-off and the treated plants are moved to a growth chamber at 20° C. for 6 days, and then incubated in a saturated atmosphere at 20° C. for 24 h, after which disease ratings are made.
# [9] = curative, 100 ppm on potato seedlings
# [10] = grape seedlings sprayed to run-off, inoculated next day, concentration not given
# [11] = grape seedlings, curative, 20 ppm
# [12] = grape seedlings inoculated, sprayed next day (curative), concentration not given
Compound,"Test B disease control rating (100 = 100% disease control, 0 = no control) [1] [%]","Test F disease control rating (100 = 100% disease control, 0 = no control) [2, 9]","Test C disease control rating (100 = 100% disease control, 0 = no control) [3] [%]",curative utility [4],"Test E disease control rating (100 = 100% disease control, 0 = no control) [5, 10] [%]","Test D disease control rating (100 = 100% disease control, 0 = no control) [6] [%]","Test A disease control rating (100 = 100% disease control, 0 = no control) [7] [%]","Test G disease control rating (100 = 100% disease control, 0 = no control) ([8]; grape seedlings, curative, 100 ppm (footnote *))","Test G disease control rating (100 = 100% disease control, 0 = no control) [8, 11]","Test E disease control rating (100 = 100% disease control, 0 = no control) ([5]; grape seedlings, preventive, 100 ppm (footnote *))","Test G disease control rating (100 = 100% disease control, 0 = no control) [8, 12] [%]","Test F disease control rating (100 = 100% disease control, 0 = no control) ([2]; seedlings inoculated, sprayed next day (curative), concentration not given) [%]"
"2,4-Dichloro-N-[1-[3-chloro-5-(trifluoromethyl)-2-pyridinyl]ethyl]-3-pyridinecarboxamide [Compound 21]",74,100# %,0,significant curative utility,100,100,0,100* %,–,–,–,–
"CC(NC(=O)c1c(Cl)ccnc1Cl)c1ncc(C(F)(F)F)cc1Cl (single isomer, unassigned; (+)) [Compound 22, (+)-2,4-Dichloro-N-[1-[3-chloro-5-(trifluoromethyl)-2-pyridinyl]ethyl]-3-pyridinecarboxamide]",–,100# %,0,significant curative utility,100,100,–,–,100** %,–,–,–
"CC(NC(=O)c1c(Cl)ccnc1Cl)c1ncc(C(F)(F)F)cc1Cl (single isomer, unassigned; (-)) [Compound 23, (−)-2,4-Dichloro-N-[-1-[3-chloro-5-(trifluoromethyl)-2-pyridinyl]ethyl]-3-pyridinecarboxamide]",–,65# %,–,–,–,–,–,–,0** %,69* %,–,–
"Cc1cc(Cl)c(C(=O)NCc2ncc(C(F)(F)F)cc2Cl)c(Cl)n1 [Compound 5, 2,4-Dichloro-N-[[3-chloro-5-(trifluoromethyl)-2-pyridinyl]methyl]-6-methyl-3-pyridinecarboxamide]",8,100# %,–,significant curative utility,100,100,0,–,–,–,96,–
Nc1ncccc1C(=O)NCc1ncc(C(F)(F)F)cc1Cl [Compound 6],28,–,0,–,0,7,0,–,–,–,8,–
O=C(NCc1ncc(C(F)(F)F)cc1Cl)c1cncc(Br)c1 [Compound 7],9,–,74,–,0,16,0,–,–,–,0,–
O=C(NCc1ncc(C(F)(F)F)cc1Cl)c1cccnc1O [Compound 8],9,–,0,–,8,7,0,–,–,–,8,–
COc1ncccc1C(=O)NCc1ncc(C(F)(F)F)cc1Cl [Compound 9],19,–,0,–,24,7,0,–,–,–,24,–
CCOc1ncccc1C(=O)NCc1ncc(C(F)(F)F)cc1Cl [Compound 10],9,–,0,–,23,3,0,–,–,–,23,–
Cc1ccc(C(=O)NCc2ncc(C(F)(F)F)cc2Cl)c(Cl)n1 [Compound 11],19,–,90,–,98,100,0,–,–,–,99,0
O=C(NCc1ncc(C(F)(F)F)cc1Cl)c1ccc(C(F)(F)F)nc1Br [Compound 12],9,–,80,–,0,32,0,–,–,–,0,–
Cc1ccc(C(=O)NCc2ncc(C(F)(F)F)cc2Cl)c(O)n1 [Compound 13],9,–,0,–,8,7,0,–,–,–,8,–
Cc1nc(C(F)(F)F)ccc1C(=O)NCc1ncc(C(F)(F)F)cc1Cl [Compound 14],28,–,87,–,8,25,0,–,–,–,8,–
Cc1nc(C(F)(F)C(F)(F)F)ccc1C(=O)NCc1ncc(C(F)(F)F)cc1Cl [Compound 15],68,–,88,–,8,16,69,–,–,–,8,–
COc1nc(C(F)(F)F)ccc1C(=O)NCc1ncc(C(F)(F)F)cc1Cl [Compound 16],0,–,0,–,0,7,0,–,–,–,0,–
Cc1nc(Cl)ccc1C(=O)NCc1ncc(C(F)(F)F)cc1Cl [Compound 17],9,–,13,–,16,79,0,–,–,–,16,–
O=C(NCc1ncc(C(F)(F)F)cc1Cl)c1ccc(C(F)(F)F)nc1 [Compound 18],32,–,0,–,0,25,0,–,–,–,0,–
